# Values quoted from earlier work as cited in patent publication US20240156825A1, “USE OF SELECTIVE VEGFR2 AND FGFR1 INHIBITORS” (Fountain Therapeutics Inc., priority 2022, published 2024).
# Test system: any gene target
# Conditions: Table 2; lowest reported IC50 to any gene target; read-out: Min IC50_μM; cited from earlier work
row,Compound,IC50 [nM]
1,COc1cc(OC)cc(N(CCN(C)C(C)C)c2ccc3ncc(-c4cnn(C)c4)nc3c2)c1 [compound 68209043],3.89
2,COc1cccnc1C#CCN(c1ccc2ncc(-c3cnn(C)c3)nc2c1)c1c(Cl)c(OC)cc(OC)c1Cl [compound 89447340],5.89
3,C=CC(=O)N1CCN(CCCn2c(=O)c(-c3c(Cl)c(OC)cc(OC)c3Cl)cc3cnc(NC)nc32)CC1 [compound 118295624],1.3
4,COc1cc(OC)cc(N(CCN(Cc2ccc(N)cc2)C(C)C)c2ccc3ncc(-c4cnn(C)c4)nc3c2)c1 [compound 89447175],5.89
5,COc1cc(OC)cc(N(CCCN2[C@H](C)CC[C@@H]2C)c2ccc3ncc(-c4cnn(C)c4)nc3c2)c1 [compound 134135888],2.51
6,COc1cc(OC)cc(N(CCNC(C)C)c2ccc3ncc(-c4cnn(C)c4)nc3c2)c1 [compound 89447047],1.74
7,COc1cc(OC)cc(N(CCNC(C)C)c2ccc3ncc(-c4cnn(C5CCN(C)CC5)c4)nc3c2)c1 [compound 134142615],2.95
8,COc1cc(OC)cc(N(CCCN2CCCC2)c2ccc3ncc(-c4cnn(CCO)c4)nc3c2)c1 [compound 134144550],1.91
9,COc1cc(OC)cc(N(c2ccc3ncc(-c4cnn(C)c4)nc3c2)C(C)CNC(C)C)c1 (stereo not shown) [compound 68208877],4.9
10,COc1cc(OC)cc(N(CCN2CCC(N)C2)c2ccc3ncc(-c4cnn(C)c4)nc3c2)c1 (stereo not shown) [compound 134157853],1.99
11,COc1cc(OC)cc(N(CCNC(C)C)c2ccc3ncc(-c4cnn(CC5CCOCC5)c4)nc3c2)c1 [compound 134141677],2.19
12,COc1cc(OC)cc(N(CCNC(C)C)c2ccc3ncc(-c4cn[nH]c4)nc3c2)c1 [compound 134157816],2.82
13,COc1cc(OC)cc(N(CCCN2CCC(F)(F)C2)c2ccc3ncc(-c4cn[nH]c4)nc3c2)c1 [compound 134142457],10.5
14,COc1cc(N(CCNC(C)C)c2ccc3ncc(-c4cnn(C)c4)nc3c2)cc2c1OCO2 [compound 68209505],2.88
15,COc1cc(OC)cc(N(CC#Cc2nccnc2Cl)c2ccc3ncc(-c4cnn(C)c4)nc3c2)c1 [compound 89447345],15.8
16,CNCCN(c1cc(OC)cc(OC)c1)c1ccc2ncc(-c3cnn(CC(=O)NC)c3)nc2c1 [compound 134131862],2.4
17,CNC(=O)Cn1cc(-c2cnc3ccc(N(CCNC(C)C)c4cc(OC)cc(OC)c4)cc3n2)cn1 [compound 134132789],3.39
18,COc1cc(OC)cc(N(CC#Cc2nccc(OC)n2)c2ccc3ncc(-c4cnn(C)c4)nc3c2)c1 [compound 67467703],7.41

row,Compound,IC50 [nM]
1,COc1cc(OC)cc(N(CC#Cc2cc(N)ccn2)c2ccc3ncc(-c4cnn(C)c4)nc3c2)c1 [compound 89447499],2.95
2,COc1cc(OC)cc(N(CCN2CCC[C@H]2C)c2ccc3ncc(-c4cnn(C)c4)nc3c2)c1 [compound 134145938],1.99
3,COc1cc(OC)cc(N(CCCN2CCC[C@H]2C)c2ccc3ncc(-c4cnn(C)c4)nc3c2)c1 [compound 134146811],2.14
4,COc1cc(CCc2cc(NC(=O)c3ccc(N4C[C@@H](C)N[C@@H](C)C4)cc3)n[nH]2)cc(OC)c1 [compound 51039095],0.4
5,COc1cc(OC)cc(N(CCCN)c2ccc3ncc(-c4cn[nH]c4)nc3c2)c1 [compound 68208813],1.18
6,COc1cc(OC)cc(N(CC#Cc2cccc(N)n2)c2ccc3ncc(-c4cnn(C)c4)nc3c2)c1 [compound 67466417],42.7
7,COc1cc(OC)cc(N(CCCN2CCC(N)C2)c2ccc3ncc(-c4cnn(C)c4)nc3c2)c1 (stereo not shown) [compound 68209028],1.41
8,COc1cc(OC)c(Cl)c(N(CCNC(C)C)c2ccc3ncc(-c4cnn(C)c4)nc3c2)c1Cl [compound 88888615],9.12
9,CCn1cc(-c2cnc3ccc(N(CCNC)c4cc(OC)cc(OC)c4)cc3n2)cn1 [compound 68208927],3.55
10,CNCCN(c1cc(OC)cc(OC)c1)c1ccc2ncc(-c3cnn(C(C)C)c3)nc2c1 [compound 134133926],2.88
11,COc1cc(OC)cc(N(CC#Cc2cccc(CO)n2)c2ccc3ncc(-c4cnn(C)c4)nc3c2)c1 [compound 68208920],46.8
12,COc1cc(OC)cc(N(CCNC(C)C)c2ccc3ncc(-c4cnn(C5CCNCC5)c4)nc3c2)c1 [compound 68208989],2.88
13,COc1cc(OC)c(C)c(N(CCNC(C)C)c2ccc3ncc(-c4cnn(C)c4)nc3c2)c1 [compound 134147170],6.46
14,COc1ccc(Cl)c(N(CCNC(C)C)c2ccc3ncc(-c4cnn(C)c4)nc3c2)c1 [compound 134153603],3.71
15,COc1cc(OC)cc(N(CC#Cc2cc(CO)ccn2)c2ccc3ncc(-c4cnn(C)c4)nc3c2)c1 [compound 89447343],3.39
16,COc1cc(OC)cc(N(CCN2CCC(CCO)CC2)c2ccc3ncc(-c4cnn(C)c4)nc3c2)c1 [compound 68208907],2.88
17,C[C@@H](Oc1ccc2[nH]nc(/C=C/c3cnn(CCO)c3)c2c1)c1c(Cl)cncc1Cl [compound 46944259],2.6
18,COc1cc(OC)cc(N(CCCN2CCC(N3C[C@@H](C)O[C@@H](C)C3)C2)c2ccc3ncc(-c4cnn(C)c4)nc3c2)c1 (stereo partly shown) [compound 134155786],4.57

# Same assay, conditions: lowest reported IC50 to any gene target; read-out: Min IC50_μM; cited from earlier work
row,Compound,IC50 [nM]
1,COc1ccc(OC)c(N(CCCN2CCCC2)c2ccc3ncc(-c4cnn(C)c4)nc3c2)c1 [compound 134157453],38
2,CN1CCN(CCCNc2ncc3cc(-c4c(Cl)cccc4Cl)c(NC(=O)NC4CCCCC4)nc3n2)CC1 [compound 5328158],31
3,COc1cccc(N(CCNC(C)C)c2ccc3ncc(-c4cnn(C)c4)nc3c2)c1 [compound 134138612],7.24
4,COC(=O)C1=C(c2ccccc2)c2ccccc2C1=O [compound 10015651],5100
5,CNCC(O)CN(c1cc(OC)cc(OC)c1)c1ccc2ncc(-c3cnn(C)c3)nc2c1 (stereo not shown) [compound 134149546],2.82
6,COc1cc(OC)cc(-c2cc3cnc(N)nc3n(C)c2=O)c1 [compound 44294299],126
7,COc1cc(OC)cc(N(CC#Cc2cnccn2)c2ccc3ncc(-c4cnn(C)c4)nc3c2)c1 [compound 89447472],17.8
8,COc1cc(OC)cc(N(CC(O)CN2CCCCC2)c2ccc3ncc(-c4cnn(C)c4)nc3c2)c1 (stereo not shown) [compound 68209482],2.95
9,CC(C)(C)NC(=O)Nc1ccc2[nH]nc(-c3nc4ccc(N5CCC(N6CCCCC6)CC5)cc4[nH]3)c2c1 [compound 135819982],1
10,COc1cc(OC)cc(N(CCN2CCC(N(C)C)CC2)c2ccc3ncc(-c4cnn(C)c4)nc3c2)c1 [compound 68209057],5.13
11,COc1cc(OC)cc(N(CCN2CCN(C(=O)C3CC3)CC2)c2ccc3ncc(-c4cnn(C)c4)nc3c2)c1 [compound 89447346],7.76
12,COc1cc(OC)cc(N(CCN2CCC(O)C2)c2ccc3ncc(-c4cnn(C)c4)nc3c2)c1 (stereo not shown) [compound 134154939],1.82

# Same assay, conditions: next lowest IC50 value to any gene target; Table 3; read-out: Min IC50_μM; cited from earlier work
row,Compound,IC50 [nM]
1,CCCNC(=O)Nc1ccc(Oc2ncnc3cc(OC)c(OC)cc23)cc1Cl [compound 9549295],1
2,COc1cc2c(Nc3ccc(Cl)c(Cl)c3F)ncnc2cc1OC[C@@H]1CN2CCCC[C@H]2C(=O)N1 [compound 57802612],50

# Same assay, conditions: next lowest IC50 value to any gene target; read-out: Min IC50_μM; cited from earlier work
row,Compound,IC50 [nM]
1,c1ccc(-c2cnc3cncc(Nc4ccc(N5CCCCC5)cc4)c3n2)cc1 [compound 57332840],2020
2,Cc1cccc(NC(=O)Nc2ccc(-c3csc4ncnc(N)c34)cc2)c1 [compound 6539985],2
3,COc1cc2ncnc(Nc3ccc(Cl)cc3F)c2cc1OC [compound 5329006],1000
4,CC(C)n1nc(-c2ccc3cc(O)ccc3c2)c2c(N)ncnc21 [compound 135947979],20
5,COc1ccc(-c2ccc(NC(=O)Nc3cccc(Cl)c3)cc2)c2c(N)noc12 [compound 11429729],30
6,Cc1n[nH]c2sc(C(N)=O)c(NC(=O)c3ccccc3Cl)c12 [compound 44405999],9000
7,Clc1ccc(Nc2nnc(Cc3ccncc3)c3ccccc23)cc1 [compound 151193],77
8,O=C(Nc1ccc(Cl)cc1)c1ccccc1NCc1ccncc1 [compound 9797919],180
9,Cc1ccc(Nc2nccc(N(C)c3ccc4c(C)n(C)nc4c3)n2)cc1S(N)(=O)=O [compound 10113978],10
10,Cc1n[nH]c2sc(C(=O)NCc3ccccc3)cc12 [compound 44405941],16000
11,COc1cc2c(Nc3ccc(Br)cc3F)ncnc2cc1OCC1CCN(C)CC1 [compound 3081361],11
12,CNC(=O)c1cccc2cc(Oc3ccnc4cc(OC)c(OC)cc34)ccc12 [compound 11749561],110
13,COc1cc2nccc(Oc3ccc(NC(=O)NC4CC4)c(Cl)c3)c2cc1C(N)=O [compound 9823820],5.2
14,COc1ccc(-c2cnc3c(-c4cn[nH]c4)cnn3c2)cc1 [compound 57339386],16
15,C[C@@H](Nc1ncnc2[nH]c(-c3ccc(CNCCCCCCCC(=O)NO)cc3)cc12)c1ccccc1 [compound 24900644],100
16,COc1ccc(-c2ccc(NC(=O)Nc3cc(C)ccc3F)cc2)c2c(N)noc12 [compound 11429654],24
17,COc1cc2nccc(Oc3ccc4c(C(=O)Nc5ccc(Cl)cc5)cccc4c3)c2cc1OC [compound 24757938],0.5
18,c1ccc(-c2cnc3c(Nc4ccc(N5CCCCC5)cc4)cncc3n2)cc1 [compound 127030424],2340
19,COc1ccc2c(Oc3ccc4c(C(N)=O)cccc4c3)ccnc2c1 [compound 24823095],130
20,COc1cc2ncnc(Oc3ccc4c(C(N)=O)cccc4c3)c2cc1OC [compound 24823094],680
21,Clc1ccc(Nc2nnc(Cc3ccncc3)c3ccccc23)cc1 [compound 151194],54
22,COc1cc2nccc(Oc3ccc(NC(=O)C4(C(=O)Nc5ccc(F)cc5)CC4)cc3)c2cc1OC [compound 25102847],1.3
23,CCN(Cc1ccccc1)c1nc(O)nc(Nc2ccc3ncsc3c2)n1 [compound 135509841],400
